Reference: patent publication US9096582B2, “Gamma secretase modulators” (MERCK SHARP & DOHME CORP, priority 2011, dated 2015)

What was measured:
γ-secretase = target: T1, γ-secretase (Homo sapiens, UniProt P49768); experiment: Cell based γ-secretase assay (Aβ42 in conditioned media, MSD sandwich immunoassay); conditions: HEK 293 cells stably transfected with APPsw-lon; 5 hrs treatment; means of two independent experiments
T1 construct: Human embryonic kidney (HEK) 293 cells stably transfected with APPsw-lon in pcDNA3.1 vector; endogenous in cells; host or cells: HEK293 cells stably transfected with APPsw-lon (substrate only) in pcDNA3.1
Experimental: Cell Based γ-Secretase Assay (In Vitro Assay Method)
Human embryonic kidney (HEK) 293 cells stably transfected with APPsw-lon in pcDNA3.1 vector (Invitrogen) were treated with gamma secretase modulator (GSM) compounds (see Table below) for 5 hrs. Aβ in conditioned media was measured using MesoScale Discovery (MSD) technology based sandwich immunoassays. Aβ42 was measured using a pair of labeled antibodies TAG-G2-11 (described in Ida, N. et al., Journal of Biological Chemistry, 1996, 271, p. 22908-22914) and biotin-4G8 (Covance); γ-secretase activity is expressed as the concentration of compound producing 50% inhibition of the enzyme activity. The data presented below in the Table were the means of two independent experiments.

Rat CSF Aβ42 = experiment: Cerebrospinal fluid (CSF) Aβ analysis (in vivo assay method); conditions: male CD rats; oral, 30 mg/kg in 20% hydroxypropyl β-cyclodextrin; CSF collected three hours after dosing
Experimental: Cerebrospinal Fluid (CSF) Aβ Analysis (In Vivo Assay Method)
Male CD rats (100 g; Charles River Laboratories) were orally administered a GSM compound (formulated in 20% hydroxypropyl β-cyclodextin; 5 ml/kg). Three hours later, the animals were euthanized with excess CO2, and CSF was immediately collected from the cisterna magna and frozen on dry ice; only clear samples were analyzed. Rat CSF Aβ42 was analyzed using AlphaLISA Amyloid Assay kits (Perkin-Elmer) according to the manufacturer's instructions. In vivo activity of the tested GSM compounds is expressed as the percentage of Aβ42 reduction in CSF after administration of the compound and is presented in the Table.

Row | Compound | IC50 (γ-secretase) [nM] | % CSF Aβ42 Reduction After 30 mg/kg Dosing (Rat CSF Aβ42) [%]
1 | COc1cc(-c2noc3c2CCCC3N(C)Cc2ccc(F)cc2)ccc1-n1cnc(C)c1 (racemic) | 319 | –
2 | CNC1CCCc2c(-c3ccc(-n4cnc(C)c4)c(OC)c3)noc21 (racemic) | 12200 | –
3 | COc1cc(-c2noc3c2CCCC3NC2CCCCC2)ccc1-n1cnc(C)c1 (racemic) | 311 | –
4 | COc1cc(-c2noc3c2CCCC3NCC(F)(F)F)ccc1-n1cnc(C)c1 (racemic) | 464 | –
5 | COc1cc(-c2noc3c2CCCC3OCc2cc(F)cc(F)c2)ccc1-n1cnc(C)c1 (racemic) [7-(3,5-Difluorobenzyloxy)-3-(3-methoxy-4-(4-methyl-1H-imidazol-1-yl)phenyl)-4,5,6,7-tetrahydrobenzo[d]isoxazole] | 514 | –
6 | COc1cc(-c2noc3c2CCCC3(O)c2cc(F)cc(F)c2)ccc1-n1cnc(C)c1 (racemic) [7-(3,5-Difluorophenyl)-3-(3-methoxy-4-(4-methyl-1H-imidazol-1-yl)phenyl)-4,5,6,7-tetrahydrobenzo[d]isoxazol-7-ol] | 189 | 19
7 | COc1cc(-c2noc3c2CCCC3Nc2ccc(F)cc2)ccc1-n1cnc(C)c1 (single isomer, unassigned) [drawing 26, N-(4-Fluorophenyl)-3-(3-methoxy-4-(4-methyl-1H-imidazol-1-yl)phenyl)-4,5,6,7-tetrahydrobenzo[d]isoxazol-7-amine] | 403 | 37
8 | COc1cc(-c2noc3c2CCCC3NCc2cc(F)cc(F)c2)ccc1-n1cnc(C)c1 (single isomer, unassigned) [drawing 33] | 644 | 7

Now from value to compound, other results behind:

Row | IC50 (γ-secretase) [nM] | Compound | % CSF Aβ42 Reduction After 30 mg/kg Dosing (Rat CSF Aβ42) [%]
9 | 131 | COc1cc(-c2noc3c2CCCC3NCc2ccc(F)cc2)ccc1-n1cnc(C)c1 (racemic) | –
10 | 255 | COc1cc(-c2noc3c2CCCC3N[C@H](C)c2ccc(F)cc2)ccc1-n1cnc(C)c1 (mixture of isomers) | –
11 | 150 | COc1cc(-c2noc3c2CCCC3(O)Cc2cc(F)cc(F)c2)ccc1-n1cnc(C)c1 (racemic) | –
12 | 205 | COc1cc(-c2noc3c2CCCC3Oc2cc(F)cc(F)c2)ccc1-n1cnc(C)c1 (racemic) | –
13 | 113 | COc1cc(-c2noc3c2CCCC3c2cc(F)cc(F)c2)ccc1-n1cnc(C)c1 (racemic) [7-(3,5-Difluorophenyl)-3-(3-methoxy-4-(4-methyl-1H-imidazol-1-yl)phenyl)-4,5,6,7-tetrahydrobenzo[d]isoxazole] | 0
14 | 295 | COc1cc(-c2noc3c2CCCC3Oc2ccc(F)cc2)ccc1-n1cnc(C)c1 (racemic) [7-(4-Fluorophenoxy)-3-(3-methoxy-4-(4-methyl-1H-imidazol-1-yl)phenyl)-4,5,6,7-tetrahydrobenzo[d]isoxazole] | –
15 | 39.4 | COc1cc(-c2noc3c2CCCC3Nc2ccc(F)cc2)ccc1-n1cnc(C)c1 (single isomer, unassigned) [drawing 25, N-(4-Fluorophenyl)-3-(3-methoxy-4-(4-methyl-1H-imidazol-1-yl)phenyl)-4,5,6,7-tetrahydrobenzo[d]isoxazol-7-amine] | 58
16 | 29.4 | COc1cc(-c2noc3c2CCCC3NCc2cc(F)cc(F)c2)ccc1-n1cnc(C)c1 (single isomer, unassigned) [drawing 34] | 20
